Test results as given in patent publication US8969419B2, “Animal feed compositions and feeding methods” (priority 2009, dated 2015).

Test system: ruminal microbiota
Assay: Analysis of ruminal samples from cattle fed hop beta acids or Rumensin
Assay type: in vivo
Conditions: Rumensin 300 mg/day; for Lactate Concentration, % differ from Control / Isobutyrate Concentration, % differ from Control / Isovalerate Concentration, % differ from Control / Valerate Concentration, % differ from Control / Butyrate Concentration, % differ from Control / Propionate Concentration, % differ from Control / Acetate Concentration, % differ from Control / Total VFA Concentration, % differ from Control: rumen fluid; for Lactate Concentration, % differ from Control / Isobutyrate Concentration, % differ from Control / Isovalerate Concentration, % differ from Control / Valerate Concentration, % differ from Control / Butyrate Concentration, % differ from Control / Propionate Concentration, % differ from Control / Acetate Concentration, % differ from Control / Total VFA Concentration, % differ from Control / Ruminal Ammonia Concentration, % differ from Control / Ruminal Acetate:Propionate Ratio, % differ from Control: β-acids averaged over five levels; for Ruminal pH, % differ from Control: β-acids averaged over five levels (10-300 mg/day)
Procedure: Background: Cattle were fed concentrate-based diets and were administered beta acids of hops (0, 10, 80, 160, 240, or 300 mg/day) or Rumensin (300 mg/day) to determine effects of the additives on ruminal microbiota. Rumen samples were periodically taken and pH, acetate, propionate, butyrate isobutyrate, valerate isovalerate, and total volatile fatty acid (VFA) concentrations were measured. Materials and Methods: A 10% beta acids solution (standard aqueous alkaline solution of beta acids) was subjected to dilution. Dilutions of the 10% beta acids solution were prepared (with water and KOH additions) such that solutions were prepared that contained the proper amount of beta acids (per ml) to provide proper cattle dose in 30 ml total volume (e.g. a solution was prepared that had 10 mg/30 ml (pH of 10.5) and was used to treat the 10 mg/steer/day group; another solution was prepared that had 80 mg/30 ml (pH 10.5) and was used to treat the 80 mg/steer/day group). Each animal was treated with it appropriate 30 ml of solution, once per day. A subset of ruminal fluid samples representing each of the seven treatment groups (control, five levels of beta acids and Rumensin). The beta acid levels were 10, 80 and 160, 240 and 300 mg/animal daily. The rumen fluid sampling was performed at prescribed intervals following feeding. Rumen samples were analyzed using standard accepted methodologies, and concentrations of parameters of interest determined. Results: Described in Tables I through XI are the averaged results from the 24 hour feeding period (i.e. average of analysis results for each parameter, complied from samples taken and analyzed over the course of the 24 hour feeding period) for: the control animals, the animals receiving beta acids treatments (average value at all five levels), and Rumensin treated animals. The Tables provide the maximum, minimum and average values observed. The beta acids (β-acids) and Rumensin values are reported as a percentage of the control. Positive percentage values mean that the treatment (beta acids or Rumensin) exceeded the control by the specified amount (negative values less than control by specified amount.

CCC1(C2OC(C3OC(O)(CO)C(C)CC3C)CC2C)CCC(C2(C)CCC3(CC(O)C(C)C(C(C)C(OC)C(C)C(=O)O)O3)O2)O1 (stereo not drawn) [Rumensin, 4-[2-[5-ethyl-5-[5-[6-hydroxy-6-(hydroxymethyl)-3,5-dimethyl-oxan-2-yl]-3-methyl-oxolan-2-yl]oxolan-2-yl]-9-hydroxy-2,8-dimethyl-1,6-dioxaspiro[4.5]dec-7-yl]-3-methoxy-2-methyl-pentanoic acid]
Lactate Concentration, % differ from Control (Ave over 24 hrs of feeding, control 0.6 mM): 10.2% | Isobutyrate Concentration, % differ from Control (Ave over 24 hrs of feeding, control 0.79 mM): 6.84% | Isovalerate Concentration, % differ from Control (Ave over 24 hrs of feeding, control 1.25 mM): 33.4% | Valerate Concentration, % differ from Control (Ave over 24 hrs of feeding, control 3.06 mM): 31.7% | Butyrate Concentration, % differ from Control (Ave over 24 hrs of feeding, control 9.3 mM): 0.6% | Propionate Concentration, % differ from Control (Ave over 24 hrs of feeding, control 29 mM): 27.9% | Acetate Concentration, % differ from Control (Ave over 24 hrs of feeding, control 38 mM): 9% | Total VFA Concentration, % differ from Control (Ave over 24 hrs of feeding, control 82 mM): 14.9% | Ruminal Ammonia Concentration, % differ from Control (Ave over 24 hrs of feeding, control 3.4 mM): −54.1% | Ruminal Acetate:Propionate Ratio, % differ from Control (Ave over 24 hrs of feeding, control A:P ratio 1.50): −20.4% | Ruminal pH, % differ from Control (Ave value over 24 hrs of feeding, control pH 5.69): −4.45% | Isobutyrate Concentration, % differ from Control (Max over 24 hrs of feeding, control 1.00 mM): 5.00% | Isovalerate Concentration, % differ from Control (Max over 24 hrs of feeding, control 1.81 mM): 26.0% | Lactate Concentration, % differ from Control (Max over 24 hrs of feeding, control 3.0 mM): 66.7% | Valerate Concentration, % differ from Control (Max over 24 hrs of feeding, control 3.80 mM): 39.5% | Butyrate Concentration, % differ from Control (Max over 24 hrs of feeding, control 12.6 mM): −8.7% | Propionate Concentration, % differ from Control (Max over 24 hrs of feeding, control 40 mM): 12.5% | Acetate Concentration, % differ from Control (Max over 24 hrs of feeding, control 49 mM): −2% | Total VFA Concentration, % differ from Control (Max over 24 hrs of feeding, control 107 mM): 0.9% | Ruminal Ammonia Concentration, % differ from Control (Max over 24 hrs of feeding, control 7.2 mM): −41.7% | Ruminal Acetate:Propionate Ratio, % differ from Control (Max over 24 hrs of feeding, control A:P ratio 1.73): 4.0% | Ruminal pH, % differ from Control (Max value over 24 hrs of feeding, control pH 6.60): −5.45% | Lactate Concentration, % differ from Control (Min over 24 hrs of feeding, control 0.2 mM): 0.0% | Isobutyrate Concentration, % differ from Control (Min over 24 hrs of feeding, control 0.57 mM): 17.54% | Isovalerate Concentration, % differ from Control (Min over 24 hrs of feeding, control 0.88 mM): 50.0% | Valerate Concentration, % differ from Control (Min over 24 hrs of feeding, control 1.9 mM): 36.8% | Butyrate Concentration, % differ from Control (Min over 24 hrs of feeding, control 6.6 mM): −75.8% | Propionate Concentration, % differ from Control (Min over 24 hrs of feeding, control 18 mM): 22.2% | Acetate Concentration, % differ from Control (Min over 24 hrs of feeding, control 28 mM): 11% | Total VFA Concentration, % differ from Control (Min over 24 hrs of feeding, control 57 mM): 14.0% | Ruminal Ammonia Concentration, % differ from Control (Min over 24 hrs of feeding, control 0.7 mM): −54.3% | Ruminal Acetate:Propionate Ratio, % differ from Control (Min over 24 hrs of feeding, control A:P ratio 1.30): −25.4% | Ruminal pH, % differ from Control (Min value over 24 hrs of feeding, control pH 5.18): −2.70%
